# Assay results taken from article PMC12678798, “Discovery of an allosteric binding site for anthraquinones at the human P2X4 receptor” (Nature Communications, 2025).
# Residue numbers refer to the chain shown, from its start. Entries after “also recorded” stand apart in the source; their conditions may differ. Like-named read-outs stand apart in the source and are kept apart here.
# Assays:
# [1] = biological target: T1, human P2X4-E307T receptor mutant (Homo sapiens, UniProt Q99571, E307T); assay: ATP-induced calcium influx assay, P2X4-E307T mutant in 1321N1 astrocytoma cells; type: cell-based; conditions: for Potency increase at P2X4-E307T compared to wt P2X4: ratio of IC50 values, calcium influx
# T1 construct: expressed in transfected cells
# T1 sequence (Q99571 1-388 E307T): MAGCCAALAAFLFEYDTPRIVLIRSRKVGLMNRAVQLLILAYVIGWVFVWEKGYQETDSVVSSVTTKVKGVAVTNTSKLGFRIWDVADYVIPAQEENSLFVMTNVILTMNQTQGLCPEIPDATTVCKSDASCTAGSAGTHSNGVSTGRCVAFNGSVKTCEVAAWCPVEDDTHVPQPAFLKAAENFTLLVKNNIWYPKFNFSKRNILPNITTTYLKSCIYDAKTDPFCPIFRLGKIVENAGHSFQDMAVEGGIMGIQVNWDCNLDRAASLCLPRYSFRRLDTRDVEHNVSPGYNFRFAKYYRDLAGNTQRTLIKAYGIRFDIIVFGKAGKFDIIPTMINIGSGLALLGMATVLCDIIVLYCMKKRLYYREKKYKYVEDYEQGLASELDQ
# [2] = biological target: T2, P2X4 receptor mutant E307T_R301K (Homo sapiens, UniProt Q99571, E307T/R301K); assay: TEVC, double mutant E307T_R301K in Xenopus laevis oocytes; type: cell-based; conditions: 10 µM ATP, 2 min preincubation
# T2 construct: host or cells: Xenopus laevis oocytes injected with cRNA (pNKS2 vector)
# T2 sequence (Q99571 whole entry R301K/E307T): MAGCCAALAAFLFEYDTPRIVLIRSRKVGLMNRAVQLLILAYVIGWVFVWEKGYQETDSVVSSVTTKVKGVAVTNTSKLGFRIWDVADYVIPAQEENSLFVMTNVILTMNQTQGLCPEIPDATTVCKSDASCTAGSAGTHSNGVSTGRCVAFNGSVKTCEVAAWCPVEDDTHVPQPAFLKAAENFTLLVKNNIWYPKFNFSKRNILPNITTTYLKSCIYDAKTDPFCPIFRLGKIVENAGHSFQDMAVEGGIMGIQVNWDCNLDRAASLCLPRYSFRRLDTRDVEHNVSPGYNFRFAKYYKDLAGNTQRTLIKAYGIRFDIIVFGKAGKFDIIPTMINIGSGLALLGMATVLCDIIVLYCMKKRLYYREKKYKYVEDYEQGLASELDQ
# Protocol: (§1) Xenopus laevis frogs were from Nasco International (Fort Atkinson, WI, USA) and kept at the Core Facility Animal Models (CAM) of the BMC of LMU Munich, Germany (Az: 4.3.2–5682/LMU/BMC/CAM) in accordance with the EU Animal Welfare Act. […] Fifty nanoliters of cRNA (0.5 µg/µL) were injected using a Nanoject II injector (Science Products, Drummond, USA) and oocytes were kept in ND96 (96 mM NaCl, 2 mM KCl, 1 mM MgCl2, 1 mM CaCl2, 5 mM HEPES, pH 7.4–7.5) supplemented with 5 μg/mL gentamicin at 16 °C.
# (§2) cDNA encoding human P2X4 receptor (NM_002560.3) was obtained from BioCat GmbH (Heidelberg, Germany) and cloned into the pNKS2 vector[87] using Gibson Assembly (E2621L, New England Biolabs, USA) according to the manufacturer’s instructions. Point mutations were introduced by site-directed mutagenesis using KLD Enzyme Mix (M0554S, New England Biolabs, USA). All constructs were verified by full-length cDNA sequencing (Eurofins Genomics, Germany). Plasmids were linearized with NotI-HF (R3189S, New England Biolabs, USA) and purified using the MinElute Reaction Cleanup Kit (Qiagen, Hilden, Germany). […]
# (§3) Statistical analysis was performed with GraphPad Prism version 10 software, and data are presented as means ± SEM. Data were assessed for normality using the Shapiro–Wilk test and for homogeneity of variances using Levene’s test. […]
# [3] = biological target: T3, P2X4 receptor mutant E307T_R301A (Homo sapiens, UniProt Q99571, E307T/R301A); assay: TEVC, double mutant E307T_R301A in Xenopus laevis oocytes; type: cell-based; conditions: 10 µM ATP, 2 min preincubation
# T3 construct: host or cells: Xenopus laevis oocytes injected with cRNA (pNKS2 vector)
# T3 sequence (Q99571 whole entry R301A/E307T): as the sequence (Q99571 whole entry R301K/E307T) above, with K301A counted along it
# Protocol: as §1, §2, §3
# [4] = biological target: T4, P2X4 receptor mutant E307T_K298A (Homo sapiens, UniProt Q99571, E307T/K298A); assay: TEVC, double mutant E307T_K298A in Xenopus laevis oocytes; type: cell-based; conditions: 10 µM ATP, 2 min preincubation
# T4 construct: host or cells: Xenopus laevis oocytes injected with cRNA (pNKS2 vector)
# T4 sequence (Q99571 whole entry K298A/E307T): as the sequence (Q99571 whole entry R301K/E307T) above, with K298A, K301R counted along it
# Protocol: as §1, §2, §3
# [5] = biological target: T5, P2X4 receptor mutant E307Q (Homo sapiens, UniProt Q99571, E307Q); assay: TEVC, P2X4-E307Q mutant in Xenopus laevis oocytes; type: cell-based; conditions: 10 µM ATP, 2 min preincubation, PSB-0704 3 µM, PSB-0739 300 nM and 1 µM
# T5 construct: host or cells: Xenopus laevis oocytes injected with cRNA (pNKS2 vector)
# T5 sequence (Q99571 whole entry E307Q): as the sequence (Q99571 whole entry R301K/E307T) above, with K301R, T307Q counted along it
# Protocol: as §1, §2, §3
# [6] = biological target: T6, chimeric P2X4(P2X2) receptor c10^R301-Q308 (Homo sapiens, UniProt Q99571, A304N/D302K/DEL301-301/E307T/L303I/N306T/Q308T); assay: ATP-induced calcium influx assay, chimeric receptor c10 in 1321N1 astrocytoma cells; type: cell-based
# T6 construct: expressed in transfected cells; gene synthesis (Geneart), pLVX-IRES-mCherry (bicistronic, mCherry not fused)
# T6 sequence (Q99571 with tags, fused parts or gaps DEL301-301/D302K/L303I/A304N/N306T/E307T/Q308T): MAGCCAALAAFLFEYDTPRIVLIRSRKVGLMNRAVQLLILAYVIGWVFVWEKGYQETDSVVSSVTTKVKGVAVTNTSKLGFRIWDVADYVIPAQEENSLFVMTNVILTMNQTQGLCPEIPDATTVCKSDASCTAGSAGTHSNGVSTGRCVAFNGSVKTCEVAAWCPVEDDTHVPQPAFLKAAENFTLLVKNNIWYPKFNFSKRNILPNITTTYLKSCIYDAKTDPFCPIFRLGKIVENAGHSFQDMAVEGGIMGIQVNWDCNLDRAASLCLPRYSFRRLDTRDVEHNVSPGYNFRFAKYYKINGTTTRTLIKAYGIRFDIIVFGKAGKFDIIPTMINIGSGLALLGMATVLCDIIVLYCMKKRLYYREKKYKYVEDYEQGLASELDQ
# [7] = biological target: T7, P2X4 receptor mutant E307T_R82A (Homo sapiens, UniProt Q99571, E307T/R82A); assay: TEVC, double mutant E307T_R82A in Xenopus laevis oocytes; type: cell-based; conditions: 10 µM ATP, 2 min preincubation
# T7 construct: host or cells: Xenopus laevis oocytes injected with cRNA (pNKS2 vector)
# T7 sequence (Q99571 whole entry R82A/E307T): as the sequence (Q99571 whole entry R301K/E307T) above, with R82A, K301R counted along it
# Protocol: as §1, §2, §3
# [8] = biological target: T8, hP2X4-E307T receptor mutant (Homo sapiens, UniProt Q99571, E307T); assay: Two-electrode voltage clamp (TEVC), P2X4-E307T in Xenopus laevis oocytes; type: cell-based; conditions: for Inhibition of ATP-induced current: E307T, 10 µM ATP, 2 min preincubation, PSB-0704 3 µM, PSB-0739 300 nM and 1 µM; for IC50: read-out: pIC50 (inhibition of ATP-induced current) (converted)
# T8 construct: host or cells: Xenopus laevis oocytes injected with cRNA (pNKS2 vector)
# T8 sequence (Q99571 1-388 E307T): T1 sequence (Q99571 1-388 E307T)
# [9] = biological target: T9, human wt P2X4 receptor (Homo sapiens, UniProt Q99571); assay: ATP-induced calcium influx assay, human wt P2X4 receptor in 1321N1 astrocytoma cells; type: cell-based
# T9 construct: expressed in transfected cells
# T9 sequence (Q99571 1-388): T1 sequence (Q99571 1-388 E307T) with T307E
# [10] = Physicochemical properties (water solubility, lipophilicity); conditions: as stated in words
# [11] = biological target: T10, human wt P2X2 receptor (Homo sapiens, UniProt Q9UBL9); assay: ATP-induced calcium influx assay, human wt P2X2 receptor in 1321N1 astrocytoma cells; type: cell-based; conditions: for IC50: wt hP2X2
# T10 construct: expressed in transfected cells
# T10 sequence (Q9UBL9 1-471): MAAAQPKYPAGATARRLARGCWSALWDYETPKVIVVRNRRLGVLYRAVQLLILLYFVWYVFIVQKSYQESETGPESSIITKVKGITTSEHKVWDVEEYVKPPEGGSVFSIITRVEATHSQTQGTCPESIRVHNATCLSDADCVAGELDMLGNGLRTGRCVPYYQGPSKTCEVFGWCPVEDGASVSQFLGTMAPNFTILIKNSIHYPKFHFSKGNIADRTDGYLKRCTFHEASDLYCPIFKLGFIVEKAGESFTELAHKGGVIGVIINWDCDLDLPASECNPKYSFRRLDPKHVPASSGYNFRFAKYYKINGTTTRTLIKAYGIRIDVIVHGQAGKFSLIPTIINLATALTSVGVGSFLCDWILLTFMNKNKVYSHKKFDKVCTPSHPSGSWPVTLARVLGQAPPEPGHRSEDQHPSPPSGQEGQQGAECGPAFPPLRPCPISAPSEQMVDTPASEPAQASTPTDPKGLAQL
# [12] = biological target: T11, chimeric P2X4(P2X2) receptor c6^N208-S216 (Homo sapiens, UniProt Q99571, I209R/N208D/S216R/T211D/T212G); conditions: ATP at EC80
# T11 sequence (Q99571 1-388 N208D/I209R/T211D/T212G/S216R): T1 sequence (Q99571 1-388 E307T) with N208D, I209R, T211D, T212G, S216R, T307E
# [13] = biological target: T12, P2X4-Q308T receptor mutant (Homo sapiens, UniProt Q99571, Q308T); conditions: calcium influx
# T12 sequence (Q99571 1-388 Q308T): T1 sequence (Q99571 1-388 E307T) with T307E, Q308T
SMILES,IC50 [1],Effect of mutation on antagonist potency (vs E307T) [2],Effect of mutation on antagonist potency (vs E307T) [3],Effect of mutation on antagonist potency (vs E307T) [4],Inhibition of ATP-induced current [5],IC50 [6],Effect of mutation on antagonist potency (vs E307T) [7],Inhibition of ATP-induced current [8],IC50 [8],IC50 [9],Potency increase at P2X4-E307T compared to wt P2X4 [1],Water solubility [10],"Kind of modulation at an EC20 of ATP ([11]; P2X2, ATP […] (EC20))","IC50 ([11]; ATP at EC80, read-out: IC50)",IC50 ([11]; read-out: pIC50 ± SEM (n value) (converted)),Kind of modulation (shape of concentration-response curve) [12],Potency at P2X4-Q308T compared to wt P2X4 [13],"Enhancement of the ATP effect at low concentrations ([9]; wt P2X4, ATP at EC80)","Kind of modulation (shape of concentration-response curve) ([9]; wt P2X4, ATP at EC80)"
Nc1c(S(=O)(=O)O)cc(Nc2ccc(Nc3ccccc3)c(S(=O)(=O)O)c2)c2c1C(=O)c1ccccc1C2=O [PSB-0739],35.3 ± 4.7 nM,similarly potent; also recorded: no consequences,reduction in inhibitory potency,reduction in inhibitory potency,strong inhibition,3.41 ± 0.49 nM,reduction in inhibitory potency,strong inhibition,324 nM,8.91 ± 0.67 µM,,,,,,,,,
Nc1c(C(=O)O)cc(Nc2ccc(Nc3ccccc3)c(C(=O)O)c2)c2c1C(=O)c1ccccc1C2=O [PSB-0704],72.4 ± 10.2 nM,similarly potent; also recorded: no consequences,reduction in inhibitory potency,reduction in inhibitory potency,strong inhibition,,reduction in inhibitory potency,strong inhibition,1620 nM,12.5 ± 1.9 µM,> 170 fold,water-soluble,,,,,,,
Nc1c(S(=O)(=O)O)cc(Nc2ccc(Nc3nc(Cl)nc(Nc4ccccc4S(=O)(=O)O)n3)c(S(=O)(=O)O)c2)c2c1C(=O)c1ccccc1C2=O [Cibacron Blue],,,,,,,,,,,680 fold,water-soluble,no clear activating effect,13.1 µM,12.6 µM,biphasic modulation,similar,up to 141%,biphasic modulation
